According to patent publication US9181307B2, “Influenza A 2009 pandemic H1N1 polypeptide fragments comprising endonuclease activity and their use” (priority 2010, dated 2015):

System: Influenza A 2009 pandemic H1N1 PA subunit polypeptide fragment or variant thereof
Experiment: Inhibition of endonucleolytic activity of PA subunit polypeptide fragment
Type: biochemical, Influenza A 2009 pandemic H1N1 virus

| Structure (SMILES) | ability to modulate, i.e. to inhibit, the endonucleolytic activity |
| --- | --- |
| O=C(O[C@@H]1Cc2c(O)cc(O)cc2O[C@@H]1c1cc(O)c(O)c(O)c1)c1cc(O)c(O)c(O)c1 [EGCG, [(2R,3R)-5,7-dihydroxy-2-(3,4,5-trihydroxyphenyl)chroman-3-yl]3,4,5-trihydroxybenzoate] | inhibit |
| O=C(O)/C(O)=C/C(=O)C1(Cc2ccc(Cl)cc2)CCN(CC2CCCCC2)CC1 [EMBL-R05-2, 4-[4-[(4-chlorophenyl)methyl]-1-(cyclohexylmethyl)-4-piperidinyl]-2-hydroxy-4-oxo-2-butenoic acid] | inhibit |
| O=C(O)/C(O)=C/C(=O)C1(Cc2ccc(Cl)cc2)CCCN(Cc2ccccc2)C1 (stereo not drawn) [EMBL-R05-3, 4-[3-[(4-chlorophenyl)methyl]-1-(phenylmethyl)-3-piperidinyl]-2-hydroxy-4-oxo-2-butenoic acid] | inhibit |
